According to patent US20230084978A1, “OPTIMIZATION OF PEPTIDE-MELANIN BINDING” (ASSITANCE PUBLIQUE - HÔPITAUX DE PARIS, priority 2020, published 2023):
Non-standard residues stand in square brackets, D forms with d. No end group written: not given here. Hyp = O=C(O)[C@@H]1C[C@@H](O)CN1

Assay: Binding of peptides to synthetic melanin (Tricine-SDS-PAGE analysis)
Conditions: for Binding of peptides on synthetic melanin, Mel + peptide 2 hours at pH 7.4: filtered (10 kDa) preformed melanin; for Binding of peptides on synthetic melanin, Mel + peptide 2 hours at pH 7.4 / Binding of peptides on synthetic melanin, Mel + peptide 18 hours at pH 7.4 / Binding of peptides on synthetic melanin, Mel + peptide 18 hours at pH 8.5 / Binding of peptides on synthetic melanin, Mel + peptide 10 minutes / Binding of peptides on synthetic melanin, Mel + peptide 2 hours / Binding of peptides on synthetic melanin, Mel + peptide 18 hours: peptide/L-Dopa 1/4; for Binding of peptides on synthetic melanin, Mel + peptide 18 hours at pH 7.4 / Binding of peptides on synthetic melanin, Mel + peptide 18 hours at pH 8.5: filtered preformed melanin; for Binding of peptides on synthetic melanin, Mel + peptide: L-Dopa polymerized first, peptide added (1/4); for Binding of peptides on synthetic melanin, Peptide-Mel: peptide/L-Dopa 1/4 mixed, then 2 hours at pH 8.5 and 60° C.; for Binding of peptides on synthetic melanin, Mel + peptide 10 minutes / Binding of peptides on synthetic melanin, Mel + peptide 2 hours / Binding of peptides on synthetic melanin, Mel + peptide 18 hours: filtered preformed melanin at pH 7.5
Excerpt: The binding of the peptide to the melanin can be verified by Tricine-SDS-PAGE analysis as described in Carpentier; 2017 (op. cit.). Briefly, samples (peptide-Mel or peptide alone) are loaded on acrylamide gels. Following electrophoresis, the gels are stained with Coomassie Brilliant Blue R-250, allowing the quantification of the free peptide in the gel. The binding of peptides to melanin can be expressed as the ratio: [amount of unbound peptide in samples Peptide-Mel/amount of peptides in control samples containing peptides alone.
Peptides were mixed with L-Dopa (weight ratio peptide/L-Dopa=1/4 and 1/6 for gp100 and EphA2, respectively) then incubated for 2 hours at pH 8.5 and 60° C. under agitation to ensure oxygenation of the solution to generate nanoparticles of melanin-bound peptides (Peptide-Mel). Alternatively, L-Dopa alone (0.8 mg/ml) was polymerized into melanin for 2 h at pH 8.5 and 60° C. under agitation, before the peptides (weight ratio peptide/L-Dopa=1/4 and 1/6 for gp100 and EphA2, respectively) were added to the solution (Mel+peptide). Tricine-SDS-PAGE analysis was performed as described in Carpentier; 2017 (op. cit.). Briefly, samples (peptide-Mel or peptide alone) were loaded on acrylamide gels. Following electrophoresis, the gels were stained with Coomassie Brilliant Blue R-250 and imaged with the ChemiDoc XRS+ system (Bio-Rad Laboratory), allowing the quantification of the free peptide in the gel. The binding of peptides to melanin was expressed as the ratio: [amount of unbound peptide in samples Peptide-Mel/amount of peptides in control samples containing peptides alone]
First column (Peptide-Mel): L-Dopa (0.8 mg/ml) was mixed with peptides (weight ratio peptide/L-Dopa=1/4) then incubated for 2 hours at pH 8.5 and 60° C. to generate nanoparticles of melanin-bound peptides. Alternatively (second column; Mel+peptide), L-Dopa alone (0.8 mg/ml) was first polymerized into melanin for 2 h at pH 8.5 and 60° C. under vigorous agitation, before the peptides (weight ratio peptide/L-Dopa=1/4) were added to the solution and incubated for 2 hours at room temperature. In both cases, the percentage of peptides that bound to melanin was then quantified with SPS-page analysis, as described in table 1. (ND=not done)
(§1) L-Dopa (0.8 mg/ml) underwent an oxidative polymerization at pH 8.5 in aerobic conditions for 2 hours at 60° C. The reaction mixture was then filtered on a 10 kDa filter, and the retentate containing the synthetic melanin was resuspended at pH 7.5 in phosphate buffer. Peptides were then added (at the weight ratio peptide/L-Dopa=1/4) and the mixture was incubated for various periods of time and or pH. The percentage of peptides that bound to melanin was then quantified with SPS-page analysis, as described in table 1. (ND=not done).
as §1, with “8.5 and 60° C.” for “8.5 in aerobic conditions”, “2 hours.” for “2 hours at 60° C.”, “of time. Binding” for “of time and or pH. The percentage”, “of the” for “of”, “peptides” for “peptides that bound to melanin”, “(ND=not done)” for “(ND=not done).”

Row | Substance | Binding of peptides on synthetic melanin, Mel + peptide 2 hours at pH 7.4 [%] | Binding of peptides on synthetic melanin, Mel + peptide 18 hours at pH 7.4 [%] | Binding of peptides on synthetic melanin, Mel + peptide 18 hours at pH 8.5 [%] | Binding of peptides on synthetic melanin, Mel + peptide (2 hours at room temperature) [%] | Binding of peptides on synthetic melanin, Peptide-Mel [%] | other results
1 | Acetyl-K SIYRYYGL (Ac-KSIYRYYGL) [SEQ ID NO: 7] | 0 | 31 | 62 |  |  | 
2 | Acetyl-R C SIYRYYGL (Ac-RCSIYRYYGL) [SEQ ID NO: 8] | 53 | 46 | 42 | 53 | 74 | 
3 | Acetyl-R F SIYRYYGL (Ac-RFSIYRYYGL) [SEQ ID NO: 13] | 0 |  |  | 0 | 5 | 
4 | Acetyl-R H SIYRYYGL (Ac-RHSIYRYYGL) [SEQ ID NO: 9] |  |  |  |  | 60 | 
5 | Acetyl-R M SIYRYYGL (Ac-RMSIYRYYGL) [SEQ ID NO: 11] | 0 | 13 | 32 |  |  | 
6 | Acetyl-R S SIYRYYGL (Ac-RSSIYRYYGL) [SEQ ID NO: 10] | 0 | 12 |  |  |  | 
7 | Acetyl-R SIYRYYGL (Ac-RSIYRYYGL) [SEQ ID NO: 4] | 17 | 2 | 0 | 17 | 0 | melanin binding (in words), Peptide-Mel (peptide mixed with L-Dopa, 2 hours at pH 8.5): No binding
8 | Acetyl-R T SIYRYYGL (Ac-RTSIYRYYGL) [SEQ ID NO: 12] | 0 |  |  | 0 | 10 | 
9 | Acetyl-R W SIYRYYGL (Ac-RWSIYRYYGL) [SEQ ID NO: 14] | 0 |  |  | 0 | 56 | 
10 | C KVPRNQDWL (CKVPRNQDWL; Modified gp100 peptide) [SEQ ID NO: 17] |  |  |  |  |  | Binding of peptides on synthetic melanin, Mel + peptide 10 minutes: 9%; Binding of peptides on synthetic melanin, Mel + peptide 2 hours: 54%; Binding of peptides on synthetic melanin, Mel + peptide 18 hours: 99%; binding to melanin (in words), cysteine in oxidized or reduced state (preformed filtered melanin, 2 hours at room temperature): Binding was observed in both cases
11 | HydroxP KVPRNQDWL ([Hyp]KVPRNQDWL) [SEQ ID NO: 16] |  |  |  |  |  | Binding of peptides on synthetic melanin, Mel + peptide 10 minutes: 12%; Binding of peptides on synthetic melanin, Mel + peptide 2 hours: 35%; Binding of peptides on synthetic melanin, Mel + peptide 18 hours: 100%
12 | HydroxyP SIYRYYGL ([Hyp]SIYRYYGL) [SEQ ID NO: 6] | 23 | 39 | 74 | 23 | 95 | 
13 | M KVPRNQDWL (MKVPRNQDWL; Modified gp100 peptide) [SEQ ID NO: 18] |  |  |  |  |  | Binding of peptides on synthetic melanin, Mel + peptide 10 minutes: 7%; Binding of peptides on synthetic melanin, Mel + peptide 2 hours: 43%; Binding of peptides on synthetic melanin, Mel + peptide 18 hours: 100%
14 | P KVPRNQDWL (PKVPRNQDWL; Modified gp100 peptide) [SEQ ID NO: 15] |  |  |  |  |  | Binding of peptides on synthetic melanin, Mel + peptide 10 minutes: 13%; Binding of peptides on synthetic melanin, Mel + peptide 2 hours: 11%; Binding of peptides on synthetic melanin, Mel + peptide 18 hours: 100%
15 | P SIYRYYGL (PSIYRYYGL; Modified test peptide) [SEQ ID NO: 5] | 7 | 22 | 41 | 7 | 87 | 
